Like-named read-outs stand apart in the source and are kept apart here.
Legend:
Assay type in all cases: cell-based
[1] = molecular target: T1, EML4-ALK-BaF3 (Homo sapiens, UniProt Q9UM73); experiment: Growth inhibition of EML4-ALK transformed BaF3 cells (MTS); conditions: EML4-ALK-BaF3 cells, 48 hours, MTS
T1 construct: expressed in transfected cells; host or cells: Ba/F3 cells; the other entry of the earlier key: EML4 (Q9HC35, Echinoderm microtubule-associated protein-like 4)
Description: (§1) If compounds can inhibit the activity of ALK kinase or the activity of ALK signaling pathway, they can inhibit the growth of ALK transformed Ba/F3 cells. […] The broad-spectrum toxicity of compounds can be evaluated by determining the effect of the compounds on the growth of wild type BaF3 cells.
(§2) 1) Medium: DMEM (Dulbecco's modified eagle medium) or RPMI1640 (containing 10% fetal bovine serum, 100 μg/mL ampicillin, 100 μg/mL streptomycin).)
(§3) Reagents: MTS solution (2 mg/mL MTS (3-(4,5-dimethylthiazol-2-yl)-5-(3-carboxymethoxyphenyl)-2-(4-sulfophenyl)-2H-tetrazolium, inner salt); 100 μg/mL PES ([…])).
(§4) 3) Test of compound: Transformed Ba/F3 cells (EML4-ALK-BaF3, EML4-ALK(L1196M)-BaF3, NPM-ALK-BaF3) (2×10^4/well) were distributed into 96-well plates, with volume of cell sap of 90 μL, 10 μL of compounds in gradient concentration (the highest concentration 10 was μM, followed by 1/3 step by step dilution, a total of 8 concentrations were set, the system contained 0.1% DMSO (dimethyl sulfoxide)). The cell plates mixed with compounds were cultured in a cell incubator (37° C.; 5% CO2) for 48 hours, and the added 20 μL of MTS reaction solution, mixed and incubated in cell incubator (37° C.; 5% CO2) for 1-4 hours. The OD value at a wavelength of 490 nm was measured using eliasa (VARIOSKAN FLASH, Thermo). Three parallels were set up for each group, with a final concentration of 0.1% DMSO as negative control, and with medium without cells and compounds as blank control.
(§5) 4) Calculation of IC50 value: the semi inhibitory concentration of the compound acting on the cells was calculated using GradPad Prism 5 software according to the cell inhibitory rate measured.

[2] = molecular target: T2, EML4-ALK (L1196M)-BaF3 (Homo sapiens, UniProt Q9UM73, L1196M); experiment: Growth inhibition of EML4-ALK (L1196M) transformed BaF3 cells (MTS); conditions: 48 hours
T2 construct: expressed in transfected cells; host or cells: Ba/F3 cells; the other entry of the earlier key: EML4 (Q9HC35, Echinoderm microtubule-associated protein-like 4)
Description: as §1, §2, §3, §4, §5

[3] = system: wild type BaF3; experiment: Growth inhibition of wild type BaF3 cells (broad-spectrum toxicity); conditions: Mus musculus, BaF3, 48 h, MTS
Description: (§6) The activity of compounds against ALK kinase was evaluated by inhibiting the growth of cellular ALK kinase EML4-ALK-BaF3, EML4-ALK (L1196M)-BaF3, NPM-ALK-BaF3, and wild type BaF3 (Proc. Natl. Acad. Sci. USA., 2006, 103, 3153-8.) The growth of cellular ALK kinase EML4-ALK-BaF3, EML4-ALK(L1196M)-BaF3, and NPM-ALK-BaF3 depends on their kinase activity. If compounds can inhibit the activity of ALK kinase or the activity of ALK signaling pathway, they can inhibit the growth of ALK transformed Ba/F3 cells. […] The broad-spectrum toxicity of compounds can be evaluated by determining the effect of the compounds on the growth of wild type BaF3 cells.
as §2, §3
as §4, with “control. The inhibition rate of cell growth was calculated by the following formula: Cell inhibition rate %=1−(OD experimental group−OD blank group)/(OD negative group−OD blank group)*100%” for “control.”
as §5

[4] = molecular target: T3, NPM-ALK-BaF3 (Homo sapiens, UniProt Q9UM73); experiment: Growth inhibition of NPM-ALK transformed BaF3 cells (MTS); conditions: 48 hours
T3 construct: expressed in transfected cells; host or cells: Ba/F3 cells; the other entry of the earlier key: NPM1 (P06748, Nucleophosmin)
Description: as §6, §2, §3
as §4, with “control. The inhibition rate of cell growth was calculated by the following formula: Cell inhibition rate %=1−(OD experimental group−OD blank group)/(OD negative group−OD blank group)*100%” for “control.”
as §5

[5] = Table 11, read-out: EML4-ALK (L1196M) (IC50 nM)
[6] = Table 12, read-out: L1196M (IC50 nM)

| IC50 ([1]; Table 11) | IC50 [2, 5] | IC50 ([4]; Table 11) | IC50 ([1]; Table 12) | IC50 [2, 6] | IC50 ([4]; Table 12) | Structure (SMILES) | IC50 ([3]; Table 11) | IC50 ([3]; Table 12) |
| --- | --- | --- | --- | --- | --- | --- | --- | --- |
| > 10000 nM | > 10000 nM | > 10000 nM | – | – | – | CNC(=O)c1ccccc1Nc1nc(Nc2ccc(S(N)(=O)=O)cc2)nc2cc[nH]c12 [IJ-3] | > 10000 nM | – |
| – | – | – | > 10000 nM | > 10000 nM | > 10000 nM | COC(=O)c1ccccc1Oc1nc(Nc2ccc(N3CCC(O)CC3)cc2)nc2ccn(C)c12 [IIN-3] | – | > 10000 nM |
| ~446 nM | 502 nM | ~859 nM | – | – | – | CCC(C)OC(=O)c1ccccc1Nc1nc(Nc2ccc(N3CCC(N4CCN(C)CC4)CC3)cc2OC)nc2cc[nH]c12 (stereo not drawn) [IH-3] | ~949 nM | – |
| 9510 nM | > 10000 nM | > 10000 nM | – | – | – | CSc1ccccc1CNc1nc(Nc2ccc(S(N)(=O)=O)cc2)nc2cc[nH]c12 [IL-4] | > 10000 nM | – |
| > 10000 nM | 40400 nM | > 10000 nM | – | – | – | CCC(C)OC(=O)c1ccccc1Nc1nc(Nc2ccc(N3CCC(O)CC3)cc2)nc2cc[nH]c12 (stereo not drawn) [IH-2] | > 10000 nM | – |
| 6500 nM | 4130 nM | 4080 nM | – | – | – | COC(=O)c1ccccc1Nc1nc(Nc2ccc(C(=O)N3CCC(N4CCN(C)CC4)CC3)cc2OC)nc2cc[nH]c12 [IG-12] | ~7740 nM | – |
| – | – | – | 3200 nM | 4000 nM | 3710 nM | CSc1ccccc1CNc1nc(Nc2ccc(S(N)(=O)=O)cc2)nc2ccn(C)c12 [III-3] | – | ~3340 nM |
| 6900 nM | 7310 nM | > 10000 nM | – | – | – | COC(=O)c1ccccc1Oc1nc(Nc2ccc(N3CCN(C)CC3)cc2OC)nc2cc[nH]c12 [IV-1] | > 10000 nM | – |
| – | – | – | ~5750 nM | 6470 nM | > 10000 nM | COC(=O)c1ccccc1Oc1nc(Nc2ccc(N3CCN(C)CC3)cc2OC)nc2ccn(C)c12 [IIN-1] | – | ~9960 nM |
| – | – | – | 2160 nM | 6650 nM | 6990 nM | CC(C)S(=O)(=O)c1ccccc1Nc1nc(Nc2ccc(N3CCC(O)CC3)cc2)nc2ccn(C)c12 [IID-3] | – | > 10000 nM |
| ~2550 nM | 1700 nM | 1790 nM | – | – | – | COc1cc(N2CCN(C)CC2)ccc1Nc1nc(NC2CC2)c2[nH]ccc2n1 [IS-1] | 5330 nM | – |
| 1470 nM | 1160 nM | 1800 nM | – | – | – | COC(=O)c1ccccc1Nc1nc(Nc2ccc(N3CCN(C)CC3)cc2OC)nc2cc[nH]c12 [IG-1] | 2340 nM | – |
| 3930 nM | ~7250 nM | ~4560 nM | – | – | – | COc1cc(N2CCN(C)CC2)ccc1Nc1nc(Nc2ccccc2S(C)(=O)=O)c2[nH]ccc2n1 [IC-1] | > 10000 nM | – |
| 5110 nM | 4940 nM | 6100 nM | – | – | – | COC(=O)c1ccccc1Nc1nc(Nc2ccc(S(N)(=O)=O)cc2)nc2cc[nH]c12 [IG-4] | 8510 nM | – |
| ~895 nM | ~2410 nM | 1450 nM | – | – | – | COc1cc(N2CCN(C)CC2)ccc1Nc1nc(Nc2ccccc2SC(C)C)c2[nH]ccc2n1 [IB-1] | ~2800 nM | – |
| – | – | – | > 10000 nM | > 10000 nM | > 10000 nM | CC(C)S(=O)(=O)c1ccccc1CNc1nc(Nc2ccc(S(N)(=O)=O)cc2)nc2ccn(C)c12 [IIL-4] | – | > 10000 nM |
| 4870 nM | 5200 nM | 5030 nM | – | – | – | CC(C)S(=O)(=O)c1ccccc1CNc1nc(Nc2ccc(N3CCN(C)CC3)cc2)nc2cc[nH]c12 [IO-5] | 1910 nM | – |
| > 10000 nM | > 10000 nM | > 10000 nM | – | – | – | CCNc1nc(Nc2ccc(N3CCC(O)CC3)cc2)nc2cc[nH]c12 [IR-3] | > 10000 nM | – |

| IC50 ([1]; Table 11) | IC50 [2, 5] | IC50 ([4]; Table 11) | IC50 ([1]; Table 12) | IC50 [2, 6] | IC50 ([4]; Table 12) | Structure (SMILES) | IC50 ([3]; Table 11) | IC50 ([3]; Table 12) |
| --- | --- | --- | --- | --- | --- | --- | --- | --- |
| 544 nM | ~1080 nM | ~1170 nM | – | – | – | COc1cc(C2CCN(C)CC2)c(C)cc1Nc1nc(Nc2ccccc2S(=O)(=O)C(C)C)c2[nH]ccc2n1 [ID-7] | ~2960 nM | – |
| – | – | – | 1300 nM | 1590 nM | 1350 nM | COc1cc(N2CCN(C)CC2)ccc1Nc1nc(NCc2ccccc2S(=O)(=O)C(C)C)c2c(ccn2C)n1 [IIL-1] | – | ~2610 nM |
| – | – | – | ~909 nM | ~2560 nM | 512 nM | COc1cc(N2CCN(C)CC2)ccc1Nc1nc(Nc2ccccc2SC)c2c(ccn2C)n1 [IIA-1] | – | 1550 nM |
| 1720 nM | 3400 nM | 4830 nM | – | – | – | COc1cc(N2CCN(C)CC2)ccc1Nc1nc(NCc2ccccc2S(=O)(=O)C(C)C)c2[nH]ccc2n1 [IO-1] | 4080 nM | – |
| > 10000 nM | > 10000 nM | > 10000 nM | – | – | – | COc1cc(N2CCN(C)CC2)ccc1Nc1nc(NCc2ccccc2S(C)(=O)=O)c2[nH]ccc2n1 [IN-1] | > 10000 nM | – |
| > 10000 nM | > 10000 nM | > 10000 nM | – | – | – | CS(=O)(=O)c1ccccc1Nc1nc(Nc2ccc(S(N)(=O)=O)cc2)nc2cc[nH]c12 [IC-4] | > 10000 nM | – |
| – | – | – | 1720 nM | ~2800 nM | ~2510 nM | COc1cc(N2CCN(C)CC2)ccc1Nc1nc(Nc2ccccc2SC(C)C)c2c(ccn2C)n1 [IIB-1] | – | 1930 nM |
| – | – | – | ~2700 nM | 2100 nM | 1980 nM | COc1cc(N2CCN(C)CC2)ccc1Nc1nc(NCc2ccccc2S(C)(=O)=O)c2c(ccn2C)n1 [IIK-1] | – | 3280 nM |
| – | – | – | > 10000 nM | 28200 nM | > 10000 nM | Cn1ccc2nc(Nc3ccc(S(N)(=O)=O)cc3)nc(Nc3ccccc3S(C)(=O)=O)c21 [IIC-4] | – | > 10000 nM |
| 4900 nM | 4180 nM | 8270 nM | – | – | – | COC(=O)c1ccccc1Sc1nc(Nc2ccc(N3CCC(O)CC3)cc2)nc2cc[nH]c12 [IU-3] | 6520 nM | – |
| > 10000 nM | > 10000 nM | > 10000 nM | – | – | – | CS(=O)(=O)c1ccccc1Nc1nc(Nc2ccc(N3CCC(O)CC3)cc2)nc2cc[nH]c12 [IC-3] | > 10000 nM | – |
| > 10000 nM | > 10000 nM | > 10000 nM | – | – | – | CS(=O)(=O)c1ccccc1CNc1nc(Nc2ccc(S(N)(=O)=O)cc2)nc2cc[nH]c12 [IN-4] | > 10000 nM | – |
| ~300 nM | 587 nM | 572 nM | – | – | – | COc1cc(N2CCN(C)CC2)ccc1Nc1nc(NCc2ccccc2SC(C)C)c2[nH]ccc2n1 [IM-1] | ~867 nM | – |
| ~8710 nM | 4110 nM | ~8360 nM | – | – | – | CNC(=O)c1ccccc1Nc1nc(Nc2ccc(N3CCC(N4CCCC4)CC3)cc2OC)nc2cc[nH]c12 [IJ-2] | ~11700 nM | – |
| – | – | – | ~1110 nM | 1620 nM | 1400 nM | COc1cc(N2CCC(N3CCN(C)CC3)CC2)ccc1Nc1nc(Nc2ccccc2SC)c2c(ccn2C)n1 [IIA-2] | – | ~883 nM |
| – | – | – | > 10000 nM | > 10000 nM | – | Cn1ccc2nc(Nc3ccc(S(N)(=O)=O)cc3)nc(NCc3ccccc3S(C)(=O)=O)c21 [IIK-4] | – | > 10000 nM |
| > 10000 nM | > 10000 nM | > 10000 nM | – | – | – | CN1CCN(c2ccc(Nc3nc(NCc4ccccc4S(C)(=O)=O)c4[nH]ccc4n3)cc2)CC1 [IN-5] | – | – |

— patent US10508118B2, “Pyrimidopyrrole compounds, method for preparing the same, pharmaceutical compositions comprising the same and uses thereof” (Xiamen University, priority 2015, dated 2019)
